Data taken from patent US20030175979A1, “System and method for characterizing metabolites using hydrogen/deuterium exchange” (priority 2002, published 2003).
Entries after “also recorded” stand apart in the source; their conditions may differ.

Experiments:
dog liver hepatocytes = assay: Incubation of [14C]PD 0200126 with dog hepatocytes, radiochromatographic metabolite profile; type: in vitro ADME; details: [14C]PD 0200126 incubated with dog hepatocytes for 180 minutes; flow-through radioactivity detector
Experimental: In Vitro Study. A proposed metabolite M2 (PD 0200126-glucuronide) was formed following incubation of [^14C]PD 0200126 with dog liver hepatocytes for 180 minutes.
Apparatus and Conditions. An Agilent 1100 HPLC system (Agilent Technologies, Wilmington, Del.), including pumps, autoinjector, and UV detector, was used to separate the metabolites. Separation of the metabolites was achieved using a Metasil AQ guard column (Metachem Technologies, Torrance, Calif.) and a 150 mm×4.6 mm MetaChem Polaris C-18 reversed-phase HPLC column (Metachem Technologies). […]
After passing through the UV detector (280 nm), the HPLC effluent was split so that 20%-30% of the flow was introduced into the mass spectrometer via an ESI source supplied with the mass spectrometer, while 70%-80% was diverted to the radioactivity detector (β-RAM, IN/US, Tampa, Fla.). The analog output from the UV detector, along with the MS signal, were recorded in real time by the data system provided with the mass spectrometer (Xcalibur V 1.2, ThermoFinnigan). […] The β-RAM data was integrated to obtain semi-quantitative information about the metabolites and the unchanged drug. The delay in response between the radioactivity detector and the MS was 0.2 min -0.4 min with the MS response being recorded first. […]

[1] = Metabolite profile in rabbit plasma after oral administration of PD 0200126 (LC-UV/MS); type: in vivo; details: 300 mg/kg oral PD 0200126, UV 280 nm and LC-MS
Experimental: In Vivo Studies. To obtain plasma samples, blood from rabbits was collected at various time points following a 300 mg/kg oral administration of PD 0200126. Plasma was precipitated by addition of 3 volumes of acetonitrile to 1 volume of plasma and then centrifuged. The resulting supernatant was decanted off, dried, and subsequently reconstituted in the mobile phase solvent (described below) prior to injection in the HPLC. A 100-μL aliquot was injected for each experiment (run).
Apparatus and Conditions. An Agilent 1100 HPLC system (Agilent Technologies, Wilmington, Del.), including pumps, autoinjector, and UV detector, was used to separate the metabolites. Separation of the metabolites was achieved using a Metasil AQ guard column (Metachem Technologies, Torrance, Calif.) and a 150 mm×4.6 mm MetaChem Polaris C-18 reversed-phase HPLC column (Metachem Technologies). The mobile phase comprised 20-mM ammonium acetate in water adjusted to pH 4 with acetic acid (Solvent A) and acetonitrile (Solvent B), and was maintained at a constant flow rate (1 mL/min) throughout each run. Gradient elution of the metabolites was achieved using programmed stepwise changes of solvent A/B ratios of 95/5, 50/50, 25/75, 5/95, and 95/5 at 0, 40, 50, 60, and 75 min, respectively.
After passing through the UV detector (280 nm), the HPLC effluent was split so that 20%-30% of the flow was introduced into the mass spectrometer via an ESI source supplied with the mass spectrometer, while 70%-80% was diverted to the radioactivity detector (β-RAM, IN/US, Tampa, Fla.). The analog output from the UV detector, along with the MS signal, were recorded in real time by the data system provided with the mass spectrometer (Xcalibur V 1.2, ThermoFinnigan). A separate software program (Win-Flow V 1.5, IN/US, Tampa, Fla.) was used to control the β-RAM and to collect the analog output from the β-RAM. The β-RAM data was integrated to obtain semi-quantitative information about the metabolites and the unchanged drug. The delay in response between the radioactivity detector and the MS was 0.2 min -0.4 min with the MS response being recorded first.
Trace amounts of PD 0200126 and M10 were also observed at m/z 425 and 409, respectively. Metabolites M1-M6 were characterized in a separate study involving rat and mouse hepatocytes.

| Structure (SMILES) | share of the total radioactivity associated with the component (dog liver hepatocytes) | abundance of drug/metabolite in plasma (UV component / extracted ion chromatogram) [1] | abundance of drug/metabolite in plasma (UV component / extracted ion chromatogram) ([1]; 300 mg/kg) |
| --- | --- | --- | --- |
| CC(C)[C@@H](NS(=O)(=O)c1ccc(-c2ccc(Br)cc2)cc1)C(=O)NOC1OC(C(=O)O)C(O)C(O)C1O (stereo partly drawn) [Metabolite M2, PD 0200126-glucuronide] | more than 90% | – | – |
| NS(=O)(=O)c1ccc(-c2ccc(Br)cc2)cc1 [Metabolite M8, bromo-biphenylsulfonamide] | – | prominent UV components | – |
| CC(C)[C@@H](NS(=O)(=O)c1ccc(-c2ccc(Br)cc2)cc1)C(=O)O [Metabolite M9, PD 0200126-carboxylic acid] | minor amounts | prominent UV components | – |
| CC(C)[C@@H](NS(=O)(=O)c1ccc(-c2ccc(Br)cc2)cc1)C(N)=O [Metabolite M10] | – | – | Trace amounts; also recorded: minor UV component |
| CC(C)[C@@H](NS(=O)(=O)c1ccc(-c2ccc(Br)cc2)cc1)C(=O)NO [PD 0200126, 2-(4′-bromo-biphenyl-4-sulfonylamino)-N-hydroxy-3-methyl-butyramide] | – | Trace amounts | – |
